In US20240327382A1 (ALMAC DISCOVERY LIMITED, priority 2021, published 2024):

Biological target: T1, Full-length USP19 (Homo sapiens, UniProt O94966)
T1 construct: Full-length USP19 was purchased from Boston Biochem (E-576); purchased Boston Biochem E-576
T1 sequence (O94966 1-1318): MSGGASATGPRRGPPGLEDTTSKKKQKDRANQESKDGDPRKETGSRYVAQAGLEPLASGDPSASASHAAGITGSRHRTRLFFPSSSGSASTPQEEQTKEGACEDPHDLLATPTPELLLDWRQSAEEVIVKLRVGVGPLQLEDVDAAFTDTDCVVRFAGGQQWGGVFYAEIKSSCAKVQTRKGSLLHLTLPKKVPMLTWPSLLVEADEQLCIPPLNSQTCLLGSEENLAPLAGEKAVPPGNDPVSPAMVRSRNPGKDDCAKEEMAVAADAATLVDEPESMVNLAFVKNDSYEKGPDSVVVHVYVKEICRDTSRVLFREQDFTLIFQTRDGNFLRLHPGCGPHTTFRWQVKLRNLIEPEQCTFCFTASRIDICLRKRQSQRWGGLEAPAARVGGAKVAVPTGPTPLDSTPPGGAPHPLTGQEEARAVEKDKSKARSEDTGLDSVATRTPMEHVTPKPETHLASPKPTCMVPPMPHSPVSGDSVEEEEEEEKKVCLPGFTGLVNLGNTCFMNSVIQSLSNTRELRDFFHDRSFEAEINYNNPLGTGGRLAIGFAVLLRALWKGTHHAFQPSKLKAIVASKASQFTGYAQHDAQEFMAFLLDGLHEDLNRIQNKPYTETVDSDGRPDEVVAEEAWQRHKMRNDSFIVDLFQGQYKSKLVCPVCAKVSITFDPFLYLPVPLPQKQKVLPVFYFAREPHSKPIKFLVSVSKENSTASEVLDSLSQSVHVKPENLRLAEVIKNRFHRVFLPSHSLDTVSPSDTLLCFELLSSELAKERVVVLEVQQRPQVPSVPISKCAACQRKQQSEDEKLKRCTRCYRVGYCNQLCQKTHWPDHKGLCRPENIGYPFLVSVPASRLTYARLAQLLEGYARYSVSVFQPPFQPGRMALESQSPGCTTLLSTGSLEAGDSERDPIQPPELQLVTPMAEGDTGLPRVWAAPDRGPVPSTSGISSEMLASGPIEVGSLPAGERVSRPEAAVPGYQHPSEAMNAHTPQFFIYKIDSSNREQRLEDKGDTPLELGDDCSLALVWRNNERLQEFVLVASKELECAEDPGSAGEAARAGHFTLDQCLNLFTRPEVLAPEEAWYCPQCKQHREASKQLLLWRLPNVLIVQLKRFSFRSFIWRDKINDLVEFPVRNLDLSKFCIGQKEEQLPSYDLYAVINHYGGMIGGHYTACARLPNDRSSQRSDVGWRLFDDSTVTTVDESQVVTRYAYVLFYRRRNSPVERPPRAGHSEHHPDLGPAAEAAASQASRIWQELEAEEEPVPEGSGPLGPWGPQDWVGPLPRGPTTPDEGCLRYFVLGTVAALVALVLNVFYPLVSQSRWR
Experiment: USP19 fluorescence polarisation (FP) assay, Ubiquitin-Lys-TAMRA substrate
Format: biochemical
Settings: average of at least two duplicate experiments
In short: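 Fluorescence polarisation (excitation 530 nm, parallel and perpendicular emission at 575 nm) was recorded every 15 min for 90 min after adding the ubiquitin-Lys-TAMRA isopeptide (500 nM as dispensed). Beforehand, the full-length enzyme (2.5 nM as dispensed) sat 30 min at RT with compound diluted from 200 μM to 2 μM in HEPES pH 7.4 buffer with 150 mM NaCl, 5 mM DTT, 0.05% BSA and 0.05% CHAPS. Values normalised to uninhibited wells gave IC50s by non-linear fitting, each the mean of two or more duplicate runs.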

IC50	SMILES
< 10 nM	O=C(N1CC[C@@H](Cn2cnc(-c3ccccc3)cc2=O)C2(CCCC2)C1)N1CC[C@@H](NC2CC(F)(F)C2)C[C@H]1c1ccccc1 [Example 135, 3-(((R)-7-((2S,4R)-4-((3,3-Difluorocyclobutyl)amino)-2-phenylpiperidine-1-carbonyl)-7-azaspiro[4.5]decan-10-yl)methyl)-6-phenylpyrimidin-4(3H)-one]
< 10 nM	CN[C@@H]1CCN(C(=O)N2CC[C@@H](Cn3cnc(-c4ccccc4C)cc3=O)C3(CCCC3)C2)[C@H](c2cccc(F)c2F)C1 [Example 136, 3-(((R)-7-((2S,4R)-2-(2,3-Difluorophenyl)-4-(methylamino)piperidine-1-carbonyl)-7-azaspiro[4.5]decan-10-yl)methyl)-6-(0-tolyl)pyrimidin-4(3H)-one]
< 10 nM	CN[C@@H]1CCN(C(=O)N2CC[C@@H](Cn3cnc(-c4ccccc4C)cc3=O)C3(CCCC3)C2)[C@H](c2ccc(F)cc2F)C1 [Example 137, 3-(((R)-7-((2S,4R)-2-(2,4-Difluorophenyl)-4-(methylamino)piperidine-1-carbonyl)-7-azaspiro[4.5]decan-10-yl)methyl)-6-(o-tolyl)pyrimidin-4(3H)-one]
< 10 nM	CN[C@@H]1CCN(C(=O)N2CC[C@@H](Cn3cnc(-c4ccccc4OC)cc3=O)C3(CCCC3)C2)[C@H](c2ccc(F)c(F)c2)C1 [Example 138, 3-(((R)-7-((2S,4R)-2-(3,4-Difluorophenyl)-4-(methylamino)piperidine-1-carbonyl)-7-azaspiro[4.5]decan-10-yl)methyl)-6-(2-methoxyphenyl)pyrimidin-4(3H)-one]
< 10 nM	CN[C@@H]1CCN(C(=O)N2CC[C@@H](Cn3cnc(-c4ccccc4C)cc3=O)C3(CCCC3)C2)[C@H](c2ccc(F)c(F)c2)C1 [Example 139, 3-(((R)-7-((2S,4R)-2-(3,4-Difluorophenyl)-4-(methylamino)piperidine-1-carbonyl)-7-azaspiro[4.5]decan-10-yl)methyl)-6-(0-tolyl)pyrimidin-4(3H)-one]
< 10 nM	CN[C@@H]1CCN(C(=O)N2CC[C@@H](Cn3cnc(-c4ccccc4F)cc3=O)C3(CCCC3)C2)[C@H](c2cccc(F)c2F)C1 [Example 140, 3-(((R)-7-((2S,4R)-2-(2,3-Difluorophenyl)-4-(methylamino)piperidine-1-carbonyl)-7-azaspiro[4.5]decan-10-yl)methyl)-6-(2-fluorophenyl)pyrimidin-4(3H)-one]
< 10 nM	CN[C@@H]1CCN(C(=O)N2CC[C@@H](Cn3cnc(-c4ccccc4F)cc3=O)C3(CCCC3)C2)[C@H](c2ccc(F)cc2F)C1 [Example 141, 3-(((R)-7-((2S,4R)-2-(2,4-Difluorophenyl)-4-(methylamino)piperidine-1-carbonyl)-7-azaspiro[4.5]decan-10-yl)methyl)-6-(2-fluorophenyl)pyrimidin-4(3H)-one]
< 10 nM	CN[C@@H]1CCN(C(=O)N2CC[C@@H](Cn3cnc(-c4ccccc4F)cc3=O)C3(CCCC3)C2)[C@H](c2ccc(F)c(F)c2)C1 [Example 142, 3-(((R)-7-((2S,4R)-2-(3,4-Difluorophenyl)-4-(methylamino)piperidine-1-carbonyl)-7-azaspiro[4.5]decan-10-yl)methyl)-6-(2-fluorophenyl)pyrimidin-4(3H)-one]
< 10 nM	CN[C@@H]1CCN(C(=O)N2CC[C@@H](Cn3cnc(-c4ccccc4F)cc3=O)C3(CCCC3)C2)[C@H](c2cc(F)cc(F)c2)C1 [Example 143, 3-(((R)-7-((2S,4R)-2-(3,5-Difluorophenyl)-4-(methylamino)piperidine-1-carbonyl)-7-azaspiro[4.5]decan-10-yl)methyl)-6-(2-fluorophenyl)pyrimidin-4(3H)-one]
< 10 nM	O=C(N1CC[C@@H](Cn2cnc(-c3ccccc3)cc2=O)C2(CCCC2)C1)N1CC[C@@H](NCc2ccccn2)C[C@H]1c1ccccc1 [Example 144, 6-Phenyl-3-(((R)-7-((2S,4R)-2-phenyl-4-((pyridin-2-ylmethyl)amino)piperidine-1-carbonyl)-7-azaspiro[4.5]decan-10-yl)methyl)pyrimidin-4(3H)-one]
< 10 nM	CN[C@@H]1CCN(C(=O)N2CC[C@@H](Cn3cnc(-c4ccccc4F)cc3=O)C3(CCCC3)C2)[C@H](c2cc(F)ccc2F)C1 [Example 145, 3-(((R)-7-((2S,4R)-2-(2,5-Difluorophenyl)-4-(methylamino)piperidine-1-carbonyl)-7-azaspiro[4.5]decan-10-yl)methyl)-6-(2-fluorophenyl)pyrimidin-4(3H)-one]
< 10 nM	CN[C@@H]1CCN(C(=O)N2CC[C@@H](Cn3cnc(-c4ccccc4C)cc3=O)C3(CCCC3)C2)[C@H](c2cc(F)cc(F)c2)C1 [Example 146, 3-(((R)-7-((2S,4R)-2-(3,5-Difluorophenyl)-4-(methylamino)piperidine-1-carbonyl)-7-azaspiro[4.5]decan-10-yl)methyl)-6-(o-tolyl)pyrimidin-4(3H)-one]
100 to 1000 nM	Cn1ccc(N[C@@H]2CCN(C(=O)N3CC[C@@H](Cn4cnc(-c5ccccc5)cc4=O)C4(CCCC4)C3)[C@H](c3ccccc3)C2)n1 [Example 147, 3-(((R)-7-((2S,4R)-4-((1-Methyl-1H-pyrazol-3-yl)amino)-2-phenylpiperidine-1-carbonyl)-7-azaspiro[4.5]decan-10-yl)methyl)-6-phenylpyrimidin-4(3H)-one]
< 10 nM	O=C(N1CC[C@@H](Cn2cnc(-c3ccccc3)cc2=O)C2(CCCC2)C1)N1CC[C@@H](NCc2ccc(F)cn2)C[C@H]1c1ccccc1 [Example 148, 3-(((R)-7-((2S,4R)-4-(((5-Fluoropyridin-2-yl)methyl)amino)-2-phenylpiperidine-1-carbonyl)-7-azaspiro[4.5]decan-10-yl)methyl)-6-phenylpyrimidin-4(3H)-one]
< 10 nM	CN[C@@H]1CCN(C(=O)N2CC[C@@H](Cn3cnc(-c4ccccc4OC)cc3=O)C3(CCCC3)C2)[C@H](c2cccc(F)c2F)C1 [Example 149, 3-(((R)-7-((2S,4R)-2-(2,3-Difluorophenyl)-4-(methylamino)piperidine-1-carbonyl)-7-azaspiro[4.5]decan-10-yl)methyl)-6-(2-methoxyphenyl)pyrimidin-4(3H)-one]
1000 to 20000 nM	O=C(N1CC[C@@H](Cn2cnc(-c3ccccc3)cc2=O)C2(CCCC2)C1)N1CC[C@@H](Nc2ccccc2)C[C@H]1c1ccccc1 [Example 150, 6-Phenyl-3-(((R)-7-((2S,4R)-2-phenyl-4-(phenylamino)piperidine-1-carbonyl)-7-azaspiro[4.5]decan-10-yl)methyl)pyrimidin-4(3H)-one]
< 10 nM	CC1(N[C@@H]2CCN(C(=O)N3CC[C@@H](Cn4cnc(-c5ccccc5)cc4=O)C4(CCCC4)C3)[C@H](c3ccccc3)C2)CC1 [Example 151, 3-(((R)-7-((2S,4R)-4-((1-Methylcyclopropyl)amino)-2-phenylpiperidine-1-carbonyl)-7-azaspiro[4.5]decan-10-yl)methyl)-6-phenylpyrimidin-4(3H)-one]
10 to 100 nM	O=C(N1CC[C@@H](Cn2cnc(C(F)F)cc2=O)C2(CCCC2)C1)N1CC[C@@H](NCC(F)F)C[C@H]1c1cc(F)ccc1F [Example 152, 3-(((R)-7-((2S,4R)-4-((2,2-Difluoroethyl)amino)-2-(2,5-difluorophenyl)piperidine-1-carbonyl)-7-azaspiro[4.5]decan-10-yl)methyl)-6-(difluoromethyl)pyrimidin-4(3H)-one]
< 10 nM	CN[C@@H]1CCN(C(=O)N2CC[C@@H](Cn3cnc4ccc(F)cc4c3=O)C3(CCCC3)C2)[C@H](c2cc(F)cc(F)c2)C1 [Example 153, 3-(((R)-7-((2S,4R)-2-(3,5-Difluorophenyl)-4-(methylamino)piperidine-1-carbonyl)-7-azaspiro[4.5]decan-10-yl)methyl)-6-fluoroquinazolin-4(3H)-one]
